{"source": "patent US20200347043A1", "about": "“MODULATORS OF THE INTEGRATED STRESS PATHWAY” (Calico Life Sciences LLC, priority 2019, published 2020)"}
{"system": "HEK293T cells carrying the ATF4 luciferase reporter", "assay": "ATF4-Luc assay (in vitro model of VWMD)", "assay_type": "cell-based, human", "conditions": "Homo sapiens, HEK-293T, 1 μg/mL tunicamycin, 7 hours, One Glo luminescence", "method_in_brief": "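Tunicamycin (1 μg/mL) stress with co-added compound for 7 hours in HEK293T cells stably carrying an ATF4 5′-UTR–luciferase reporter. EC50 values come from the luminescent signal (One Glo).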", "units": {"EC50": "nM"}}
{"smiles": "O=C(NC12CC(C(=O)NCc3nc4cc(F)c(F)cc4[nH]3)(C1)C2)[C@H]1C[C@@H](O)c2cc(Cl)ccc2O1", "note": "[Compound 127, (2R,4R)-6-chloro-N-(3-{[(5,6-difluoro-1H-benzimidazol-2-yl)methyl]carbamoyl}bicyclo[1.1.1]pentan-1-yl)-4-hydroxy-3,4-dihydro-2H-1-benzopyran-2-carboxamide]", "EC50": "10 to 50"}
{"smiles": "O=C(NC12CC(NC(=O)[C@H]3C[C@@H](OC(F)(F)F)C3)(C1)C2)[C@H]1C[C@@H](O)c2cc(Cl)ccc2O1", "note": "[Compound 128, (2R,4R)-6-chloro-4-hydroxy-N-(3-{[(1s,3S)-3-(trifluoromethoxy)cyclobutane-1-carbonyl]amino}bicyclo[1.1.1]pentan-1-yl)-3,4-dihydro-2H-1-benzopyran-2-carboxamide]", "EC50": "500 to 2000"}
{"smiles": "O=C(COc1ccc(Cl)c(F)c1)NC12CC(C(=O)NCC3CCc4cc(Cl)ccc4O3)(C1)C2", "note": "(stereo not shown) [Compound 129, N-[(6-chloro-3,4-dihydro-2H-1-benzopyran-2-yl)methyl]-3-[2-(4-chloro-3-fluorophenoxy)acetamido]bicyclo[1.1.1]pentane-1-carboxamide]", "EC50": "10 to 50"}
{"smiles": "O=C(COc1ccc(Cl)c(F)c1)N[C@H]1CC[C@H](NC(=O)C2CC(=O)c3cc(Cl)ccc3O2)CC1", "note": "(stereo partly shown) [Compound 130, 6-chloro-N-{(1r,4r)-4-[2-(4-chloro-3-fluorophenoxy)acetamido]cyclohexyl}-4-oxo-3,4-dihydro-2H-1-benzopyran-2-carboxamide]", "EC50": "250 to 500"}
{"smiles": "O=C1C[C@H](C(=O)NC23CC(C(=O)NCc4ccc(C(F)(F)F)cn4)(C2)C3)Oc2ccc(Cl)cc21", "note": "[Compound 132, (2R)-6-chloro-4-oxo-N-[3-({[5-(trifluoromethyl)pyridin-2-yl]methyl}carbamoyl)bicyclo[1.1.1]pentan-1-yl]-3,4-dihydro-2H-1-benzopyran-2-carboxamide]", "EC50": "50 to 250"}
{"smiles": "O=C1CC(C(=O)NC23CC(C(=O)NCc4ccc(C(F)(F)F)cn4)(C2)C3)Oc2ccc(Cl)cc21", "note": "(stereo not shown) [Compound 134, 6-chloro-4-oxo-N-[3-({[5-(trifluoromethyl)pyridin-2-yl]methyl}carbamoyl)bicyclo[1.1.1]pentan-1-yl]-3,4-dihydro-2H-1-benzopyran-2-carboxamide]", "EC50": "250 to 500"}
{"smiles": "O=C1C[C@H](C(=O)NC23CC(C(=O)NCc4nc5cc(F)c(F)cc5[nH]4)(C2)C3)Oc2ccc(Cl)cc21", "note": "[Compound 135, (2R)-6-chloro-N-(3-{[(5,6-difluoro-1H-benzimidazol-2-yl)methyl]carbamoyl}bicyclo[1.1.1]pentan-1-yl)-4-oxo-3,4-dihydro-2H-1-benzopyran-2-carboxamide]", "EC50": "50 to 250"}
{"smiles": "O=C1CC(C(=O)N[C@@H]2CC[C@@H](C(=O)NCc3ccc(C(F)(F)F)cc3)OC2)Oc2ccc(Cl)cc21", "note": "(stereo partly drawn) [Compound 137, 6-chloro-4-oxo-N-[(3R,6S)-6-({[4-(trifluoromethyl)phenyl]methyl}carbamoyl)oxan-3-yl]-3,4-dihydro-2H-1-benzopyran-2-carboxamide]", "EC50": "50 to 250"}
{"smiles": "O=C1CC(C(=O)N[C@H]2CC[C@H](C(=O)NCc3nc4ccc(Cl)cc4[nH]3)CC2)Oc2ccc(Cl)cc21", "note": "(stereo partly shown) [Compound 138, 6-chloro-N-[(1r,4r)-4-{[(6-chloro-1H-benzimidazol-2-yl)methyl]carbamoyl}cyclohexyl]-4-oxo-3,4-dihydro-2H-1-benzopyran-2-carboxamide]", "EC50": "50 to 250"}
{"smiles": "O=C1CC(C(=O)N[C@@H]2CC[C@@H](C(=O)N3CC(Oc4ccc(Cl)cc4)C3)OC2)Oc2ccc(Cl)cc21", "note": "(stereo partly drawn) [Compound 139, 6-chloro-N-{(3R,6S)-6-[3-(4-chlorophenoxy)azetidine-1-carbonyl]oxan-3-yl}-4-oxo-3,4-dihydro-2H-1-benzopyran-2-carboxamide]", "EC50": "500 to 2000"}
{"smiles": "O=C1CC(C(=O)N[C@@H]2CC[C@@H](C(=O)NCc3cn4ccc(Cl)cc4n3)OC2)Oc2ccc(Cl)cc21", "note": "(stereo partly drawn) [Compound 140, 6-chloro-N-[(3R,6S)-6-{[(7-chloroimidazo[1,2-a]pyridin-2-yl)methyl]carbamoyl}oxan-3-yl]-4-oxo-3,4-dihydro-2H-1-benzopyran-2-carboxamide]", "EC50": "50 to 250"}
{"smiles": "O=C(COc1ccc(Cl)c(F)c1)N[C@H]1CC[C@H](NC(=O)C2CC(O)c3cc(Cl)ccc3O2)CC1", "note": "(stereo partly shown) [Compound 141, 6-chloro-N-{(1r,4r)-4-[2-(4-chloro-3-fluorophenoxy)acetamido]cyclohexyl}-4-hydroxy-3,4-dihydro-2H-1-benzopyran-2-carboxamide]", "EC50": "10 to 50"}
{"smiles": "Cc1cc(C)cc(OCC2CN(C34CC(NC(=O)[C@H]5C[C@@H](O)c6cc(Cl)ccc6O5)(C3)C4)C(=O)O2)c1", "note": "(stereo partly drawn) [Compound 142, (2R,4R)-6-chloro-N-(3-{5-[(3,5-dimethylphenoxy)methyl]-2-oxo-1,3-oxazolidin-3-yl}bicyclo[1.1.1]pentan-1-yl)-4-hydroxy-3,4-dihydro-2H-1-benzopyran-2-carboxamide]", "EC50": "> 2000"}
{"smiles": "O=C(NC1CC2(C1)CN(C(=O)COc1ccc(Cl)c(F)c1)C2)[C@H]1C[C@@H](O)c2cc(Cl)ccc2O1", "note": "[Compound 143, (2R,4R)-6-chloro-N-{2-[(4-chloro-3-fluorophenoxy)acetyl]-2-azaspiro[3.3]heptan-6-yl}-4-hydroxy-3,4-dihydro-2H-1-benzopyran-2-carboxamide]", "EC50": "50 to 250"}
{"smiles": "O=C(COc1ccc(Cl)c(F)c1)NC1CC2(C1)CN(C(=O)C1CC(=O)c3cc(Cl)ccc3O1)C2", "note": "(stereo not shown) [Compound 144, 2-(4-chloro-3-fluorophenoxy)-N-[2-(6-chloro-4-oxo-3,4-dihydro-2H-1-benzopyran-2-carbonyl)-2-azaspiro[3.3]heptan-6-yl]acetamide]", "EC50": "50 to 250"}
{"smiles": "O=C(NC12CCC(NC(=O)[C@H]3C[C@@H](OC(F)(F)F)C3)(CC1)[C@@H](O)C2)c1cc(=O)c2cc(Cl)ccc2o1", "note": "[Compound 146, 6-chloro-N-[(3S)-3-hydroxy-4-{[(1s,3R)-3-(trifluoromethoxy)cyclobutane-1-carbonyl]amino}bicyclo[2.2.2]octan-1-yl]-4-oxo-4H-1-benzopyran-2-carboxamide]", "EC50": "250 to 500"}
{"smiles": "O=C1CC(C(=O)NC23CC(n4cnc(-c5ccc(F)c(F)c5)c4)(C2)C3)Oc2ccc(Cl)cc21", "note": "(stereo not shown) [Compound 148, 6-chloro-N-{3-[4-(3,4-difluorophenyl)-1H-imidazol-1-yl]bicyclo[1.1.1]pentan-1-yl}-4-oxo-3,4-dihydro-2H-1-benzopyran-2-carboxamide]", "EC50": "10 to 50"}
{"smiles": "O=C1CC(C(=O)NC23CCC(c4nnc(C5CC(OC(F)(F)F)C5)o4)(C2)C3)Oc2ccc(Cl)cc21", "note": "(stereo not shown) [Compound 150, 6-chloro-4-oxo-N-(4-{5-[(1s,3s)-3-(trifluoromethoxy)cyclobutyl]-1,3,4-oxadiazol-2-yl}bicyclo[2.1.1]hexan-1-yl)-3,4-dihydro-2H-1-benzopyran-2-carboxamide]", "EC50": "> 2000"}
{"smiles": "O=C1CC(C(=O)N[C@@H]2CC[C@@H](c3nnc([C@H]4C[C@@H](OC(F)(F)F)C4)o3)OC2)Oc2ccc(Cl)cc21", "note": "(stereo partly drawn) [Compound 152, 6-chloro-4-oxo-N-[(3R,6)-6-{5-[(1s,3R)-3-(trifluoromethoxy)cyclobutyl]-1,3,4-oxadiazol-2-yl}oxan-3-yl]-3,4-dihydro-2H-1-benzopyran-2-carboxamide]", "EC50": "10 to 50"}
{"smiles": "O=C(COc1ccc(Cl)c(F)c1)N[C@@H]1CC[C@@H](c2nnc([C@H]3C[C@@H](OC(F)(F)F)C3)o2)OC1", "note": "[Compound 153, 2-(4-chloro-3-fluorophenoxy)-N-[(3R,6S)-6-{5-[(1s,3R)-3-(trifluoromethoxy)cyclobutyl]-1,3,4-oxadiazol-2-yl}oxan-3-yl]acetamide]", "EC50": "< 10"}
{"smiles": "O=C(NC12CC(C3NC(COc4ccc(Cl)c(F)c4)=NO3)(C1)C2)[C@H]1C[C@@H](O)c2cc(Cl)ccc2O1", "note": "(stereo partly drawn) [Compound 154, (2R,4R)-6-chloro-N-(3-{3-[(4-chloro-3-fluorophenoxy)methyl]-4,5-dihydro-1,2,4-oxadiazol-5-yl}bicyclo[1.1.1]pentan-1-yl)-4-hydroxy-3,4-dihydro-2H-1-benzopyran-2-carboxamide]", "EC50": "10 to 50"}
{"smiles": "O=C1C[C@H](C(=O)NC23CC(c4nc(COc5ccc(Cl)c(F)c5)no4)(C2)C3)Oc2ccc(Cl)cc21", "note": "[Compound 155, (2R)-6-chloro-N-(3-{3-[(4-chloro-3-fluorophenoxy)methyl]-1,2,4-oxadiazol-5-yl}bicyclo[1.1.1]pentan-1-yl)-4-oxo-3,4-dihydro-2H-1-benzopyran-2-carboxamide]", "EC50": "10 to 50"}
{"smiles": "O=C(NC12CC(c3nc(COc4ccc(Cl)c(F)c4)no3)(C1)C2)[C@H]1C[C@@H](O)c2cc(Cl)ccc2O1", "note": "[Compound 156, (2R,4R)-6-chloro-N-(3-{3-[(4-chloro-3-fluorophenoxy)methyl]-1,2,4-oxadiazol-5-yl}bicyclo[1.1.1]pentan-1-yl)-4-hydroxy-3,4-dihydro-2H-1-benzopyran-2-carboxamide]", "EC50": "< 10"}
{"smiles": "O=C(CO[C@H]1C[C@@H](OC(F)(F)F)C1)NC12CCC(C(=O)NCc3ccc(C(F)(F)F)cn3)(CC1)CC2", "note": "[Compound 157]", "EC50": "> 2000"}
{"smiles": "O=C(CO[C@H]1C[C@@H](OC(F)(F)F)C1)N[C@H]1CC[C@H](C(=O)NCc2ccc(C(F)(F)F)cn2)CC1", "note": "[Compound 158, (1r,4r)-4-(2-{[(1s,3s)-3-(trifluoromethoxy)cyclobutyl]oxy}acetamido)-N-([5-(trifluoromethyl)pyridin-2-yl]methyl)cyclohexane-1-carboxamide]", "EC50": "> 2000"}
{"smiles": "O=C(CO[C@H]1C[C@@H](OC(F)(F)F)C1)NC12CC(NC(=O)[C@H]3CC(=O)c4cc(Cl)ccc4O3)(C1)C2", "note": "[Compound 162, (2R)-6-chloro-4-oxo-N-[3-(2-{[cis-3-(trifluoromethoxy)cyclobutyl]oxy}acetamido)bicyclo[1.1.1]pentan-1-yl]-3,4-dihydro-2H-1-benzopyran-2-carboxamide]", "EC50": "10 to 50"}
{"smiles": "O=C1CC(C(=O)NC23CCC(c4nnc([C@H]5C[C@@H](OC(F)(F)F)C5)o4)(CC2)OC3)Oc2ccc(Cl)cc21", "note": "(stereo partly shown) [Compound 163]", "EC50": "10 to 50"}
{"smiles": "O=C(CO[C@H]1C[C@@H](OC(F)(F)F)C1)NC12CC(NC(=O)[C@H]3C[C@@H](O)c4cc(Cl)ccc4O3)(C1)C2", "note": "[Compound 164, (2R,4R)-6-chloro-4-hydroxy-N-[3-(2-{[cis-3-(trifluoromethoxy)cyclobutyl]oxy}acetamido)bicyclo[1.1.1]pentan-1-yl]-3,4-dihydro-2H-1-benzopyran-2-carboxamide]", "EC50": "< 10"}
